Assay results taken from ChEMBL document CHEMBL3286355, “New Hits as Antagonists of GPR103 Identified by HTS” (ACS Med Chem Lett, 2014).

Assays:
[1] = biological target: T1, Pyroglutamylated RF-amide peptide receptor (Homo sapiens, UniProt Q96P65); assay: Antagonist activity at human GPR103 receptor assessed as inhibition of inositol-1-phosphate production by cell-based assay; format: functional
T1 sequence (Q96P65 whole entry): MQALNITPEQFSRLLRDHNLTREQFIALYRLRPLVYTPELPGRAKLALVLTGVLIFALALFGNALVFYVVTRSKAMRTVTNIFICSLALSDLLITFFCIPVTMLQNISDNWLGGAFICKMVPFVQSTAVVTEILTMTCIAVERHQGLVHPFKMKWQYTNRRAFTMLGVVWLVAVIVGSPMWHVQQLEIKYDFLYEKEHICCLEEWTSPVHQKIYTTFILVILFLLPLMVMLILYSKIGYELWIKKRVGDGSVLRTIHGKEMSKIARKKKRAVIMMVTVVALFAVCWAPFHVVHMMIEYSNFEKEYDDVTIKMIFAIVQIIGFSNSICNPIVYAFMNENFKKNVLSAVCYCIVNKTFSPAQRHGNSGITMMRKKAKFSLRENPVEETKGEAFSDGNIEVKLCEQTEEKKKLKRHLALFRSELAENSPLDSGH

[2] = Distribution coefficient, log D of the compound at pH 7.4; conditions: octanol/water
[3] = biological target: T1, Pyroglutamylated RF-amide peptide receptor; assay: Displacement of [125I]-QRFP43 from human GPR103 receptor overexpressed in HEK membranes after 90 mins by liquid scintillation counting; format: cell membranes
[4] = Dissociation constant, pKa of the compound; format: physicochemical

| SMILES | IC50 [1] | logD [2] | IC50 [3] | pKa [4] |
| --- | --- | --- | --- | --- |
| CCC(=N)Nc1ccc(OC)c(CSC2CCCC2)c1 | > 39800 nM | 1.2 | – | – |
| C/N=C(/Nc1ccc(OC)c(CSC2CCCC2)c1)c1cccs1 | 251 nM | 3.1 | 631 nM | – |
| COc1ccc(NC(=N)c2ccccc2)cc1C[S+]([O-])C1CCCC1 (centres undefined) | > 39800 nM | 0.8 | – | – |
| COc1ccc(NC(=N)c2cc(C)cs2)cc1CSC1CCCC1 | 63.1 nM | 3.7 | 100 nM | – |
| COc1ccc(NC(=N)c2cccs2)cc1COC1CCCC1 | 2510 nM | 2.7 | 10000 nM | – |
| COc1ccc(NC(=N)c2nccs2)cc1CSC1CCCC1 | 2510 nM | 4 | 25100 nM | – |
| COc1ccc(NC(=N)c2ccc(Br)s2)cc1CSC1CCCC1 | 20 nM | > 5 | 126 nM | – |
| COc1ccc(NC(=N)c2ccsc2)cc1CSC1CCCC1 | 100 nM | 2.5 | 126 nM | – |
| N=C(Nc1ccc(Cl)c(CSC2CCCC2)c1)c1cccs1 | 1000 nM | 3.9 | 3980 nM | – |
| COc1ccc(NC(=N)c2ccc(Cl)cc2)cc1CSC1CCCC1 | 12.6 nM | 3.7 | 39.8 nM | – |
| COc1ccc(NC(=N)c2ccccc2)cc1CS(=O)(=O)C1CCCC1 | 31600 nM | – | – | – |
| N=C(Nc1cccc(CSC2CCCC2)c1)c1cccs1 | 794 nM | 3.8 | 2510 nM | – |
| COc1ccc(NC(=N)c2ccccc2)cc1CSC1CCCC1 | 20 nM | 2.5 | 25.1 nM | – |
| COc1ccc(NC(=N)c2cc(Br)cs2)cc1CSC1CCCC1 | 158 nM | 4.7 | – | – |
| COc1ccc(NC(=N)c2ccccc2)cc1CNC(=O)C1CCCC1 | 2510 nM | 1.1 | 7940 nM | – |
| COc1ccc(NC(=N)c2ccccc2)cc1CSc1ccccc1 | 1580 nM | 2.6 | 7940 nM | – |
| COc1ccc(Nc2ccccn2)cc1CSC1CCCC1 | 12600 nM | 4.6 | > 31600 nM | – |
| COc1ccc(NC(=N)c2cccnc2)cc1CSC1CCCC1 | 251 nM | 2.6 | 501 nM | – |
| COc1ccc(NC(=N)c2cccs2)cc1CSC1CCCC1 | 50.1 nM | 3.3 | 158 nM | 8.1 |
| COc1ccc(Cl)cc1NS(=O)(=O)c1ccc(OC)c2c1CC[C@@H](N(C)C)C2 | 79.4 nM | 2.3 | 79.4 nM | 10.5 |
| COc1ccc(NC(=N)c2ccccc2)cc1CCC1CCCC1 | 316 nM | 3.8 | 200 nM | – |
| COc1ccc(NC(=N)c2ccncc2)cc1CSC1CCCC1 | 1580 nM | 2.9 | – | – |
| Cc1cc2nc(NC(=N)N)nc(C)c2cc1C | 2510 nM | < 0.6 | 5010 nM | 9.3 |
| N=C(Nc1ccc(F)c(CSC2CCCC2)c1)c1cccs1 | 501 nM | > 3.9 | 1260 nM | – |
| N=C(Nc1ccc(OC(F)(F)F)c(CSC2CCCC2)c1)c1cccs1 | 2000 nM | > 4.8 | – | – |
| Cc1ccc(NC(=N)c2cccs2)cc1CSC1CCCC1 | 1580 nM | > 3.8 | 10000 nM | – |
| COc1ccc(C(=N)Nc2ccccc2)cc1CSC1CCCC1 | 1000 nM | 2.8 | 3980 nM | – |
| COc1ccc(NC(=N)Cc2ccccc2)cc1CSC1CCCC1 | 6310 nM | 2.3 | – | – |
| C/N=C(\c1cccs1)N(C)c1ccc(OC)c(CSC2CCCC2)c1 | > 39800 nM | 1.9 | – | – |
| COc1ccc(NC(=O)c2cccs2)cc1CSC1CCCC1 | 7940 nM | > 4.2 | > 31600 nM | – |
